Values quoted from earlier work as cited in PubChem BioAssay AID1259409 (Chemical Carcinogenesis Research Information System (CCRIS), 2018).

System: rodent chemically induced tumor inhibition, incidence and multiplicity
Experiment: CCRIS tumor inhibitor studies

C[C@]12CCC(=O)C=C1CC[C@@H]1[C@@H]2CC[C@@]2(C)[C@H]1CC[C@]2(C)O
tumour outcome (control, treated, inhibition, significance) (Carcinogen: N-BIS(2-HYDROXYPROPYL)NITROSAMINE, 53609-64-6, Dose [Inhibitor]: 0.03% IN DIET FOR 28 WK BEGINNING POST CARCINOGEN DOSE (STUDY DURATION: 30 WK), Route [Inhibitor]: ORAL, Species: RAT, Strain/Sex: WISTAR/MALE, Target Tissue: Type of Lesion: THYROID: ADENOMA, Dose [Carcinogen]: 210 MG/100 G 1/WK FOR 2 WK, Promoter: NONE USED): 9/13 (69%), 2/15 (13%), 81%, p<0.05
tumour outcome (control, treated, inhibition, significance) (Carcinogen: N-BIS(2-HYDROXYPROPYL)NITROSAMINE, 53609-64-6, Dose [Inhibitor]: 0.03% IN DIET FOR 28 WK BEGINNING POST CARCINOGEN DOSE (STUDY DURATION: 30 WK), Route [Inhibitor]: ORAL, Species: RAT, Strain/Sex: WISTAR/MALE, Target Tissue: Type of Lesion: THYROID: CARCINOMA, Dose [Carcinogen]: 210 MG/100 G 1/WK FOR 2 WK, Promoter: NONE USED): 2/13 (15%), 2/15 (13%), 13%, not calculated
tumour outcome (control, treated, inhibition, significance) (Carcinogen: N-BIS(2-HYDROXYPROPYL)NITROSAMINE, 53609-64-6, Dose [Inhibitor]: 0.15% IN DIET FOR 28 WK BEGINNING POST CARCINOGEN DOSE (STUDY DURATION: 30 WK), Route [Inhibitor]: ORAL, Species: RAT, Strain/Sex: WISTAR/MALE, Target Tissue: Type of Lesion: THYROID: ADENOMA, Dose [Carcinogen]: 210 MG/100 G 1/WK FOR 2 WK, Promoter: NONE USED): 9/13 (69%), 0/15 (0%), 100%, p<0.05

N[C@@H](Cc1cc(I)c(Oc2cc(I)c(O)c(I)c2)c(I)c1)C(=O)O
outcome (Carcinogen: N-METHYL-N-NITROSOUREA [684-93-5], Dose [Inhibitor]: 3 UG/ML IN DRINKING WATER, 2 WKS BEFORE CARCINOGEN AND FOR 26 WKS AFTER, Route [Inhibitor]: DRINKING WATER, Species: RAT, Strain/Sex: SPRAGUE-DAWLEY/FEMALE, Target Tissue: Type of Lesion: MAMMARY GLAND: CARCINOMA, Dose [Carcinogen]: 50 MG/KG BW ONCE AT 7 WKS OF AGE (IN SALINE SOLUTION)): 8/11 (73%) vs 9/11 (82%) at 16 wks

N[C@@H](CCC(=O)N[C@@H](CS)C(=O)NCC(=O)O)C(=O)O
tumour outcome (control, treated, inhibition, significance) (Carcinogen: TRANS-5-AMINO-3-[2-(5-NITRO-2-FURYL)VINYL]-1,2,4-OXADIAZOLE;SQL8506, 28754-68-9, Carcinogen: TRANS-5-AMINO-3-[2-(5-NITRO-2-FURYL)VINYL]-1,2,4-OXADIAZOLE;SQL8506, 28754-68-9, Dose [Inhibitor]: 400 MG/KG 16 HR BEFORE THE 1ST CARCINOGEN DOSE FOLLOWED BY ADDITIONAL INJECTIONS IMMEDIATELY BEFORE EACH DOSE OF CARCINO, Route [Inhibitor]: INTRAPERITONEAL, Species: MOUSE, Strain/Sex: CD-1/FEMALE, Target Tissue: Type of Lesion: HEMATOPOIETIC SYSTEM: MYELOID LEUKEMIA, Dose [Carcinogen]: 1 G/KG 2/D FOR 5 D EVERY 4 WK FOR 3 COURSES OF TREATMENT, Promoter: NONE USED): 7/137 (5%), 2/35 (6%), -20%, not calculated
tumour outcome (control, treated, inhibition, significance) (Carcinogen: TRANS-5-AMINO-3-[2-(5-NITRO-2-FURYL)VINYL]-1,2,4-OXADIAZOLE;SQL8506, 28754-68-9, Carcinogen: TRANS-5-AMINO-3-[2-(5-NITRO-2-FURYL)VINYL]-1,2,4-OXADIAZOLE;SQL8506, 28754-68-9, Dose [Inhibitor]: 400 MG/KG 16 HR BEFORE THE 1ST CARCINOGEN DOSE FOLLOWED BY ADDITIONAL INJECTIONS IMMEDIATELY BEFORE EACH DOSE OF CARCINO, Route [Inhibitor]: INTRAPERITONEAL, Species: MOUSE, Strain/Sex: CD-1/FEMALE, Target Tissue: Type of Lesion: LYMPHOID TISSUE: NONTHYMIC LYMPHOMA, Dose [Carcinogen]: 1 G/KG 2/D FOR 5 D EVERY 4 WK FOR 3 COURSES OF TREATMENT, Promoter: NONE USED): 8/137 (6%), 3/35 (8%), -33%, not calculated
tumour outcome (control, treated, inhibition, significance) (Carcinogen: TRANS-5-AMINO-3-[2-(5-NITRO-2-FURYL)VINYL]-1,2,4-OXADIAZOLE;SQL8506, 28754-68-9, Carcinogen: TRANS-5-AMINO-3-[2-(5-NITRO-2-FURYL)VINYL]-1,2,4-OXADIAZOLE;SQL8506, 28754-68-9, Dose [Inhibitor]: 400 MG/KG 16 HR BEFORE THE 1ST CARCINOGEN DOSE FOLLOWED BY ADDITIONAL INJECTIONS IMMEDIATELY BEFORE EACH DOSE OF CARCINO, Route [Inhibitor]: INTRAPERITONEAL, Species: MOUSE, Strain/Sex: CD-1/FEMALE, Target Tissue: Type of Lesion: LYMPHOID TISSUE: THYMIC LYMPHOMA, Dose [Carcinogen]: 1 G/KG 2/D FOR 5 D EVERY 4 WK FOR 3 COURSES OF TREATMENT, Promoter: NONE USED): 22/137 (16%), 2/35 (6%), 62%, not calculated
tumour outcome (control, treated, inhibition, significance) (Carcinogen: TRANS-5-AMINO-3-[2-(5-NITRO-2-FURYL)VINYL]-1,2,4-OXADIAZOLE;SQL8506, 28754-68-9, Carcinogen: TRANS-5-AMINO-3-[2-(5-NITRO-2-FURYL)VINYL]-1,2,4-OXADIAZOLE;SQL8506, 28754-68-9, Dose [Inhibitor]: 400 MG/KG 16 HR BEFORE THE 1ST CARCINOGEN DOSE FOLLOWED BY ADDITIONAL INJECTIONS IMMEDIATELY BEFORE EACH DOSE OF CARCINO, Route [Inhibitor]: INTRAPERITONEAL, Species: MOUSE, Strain/Sex: CD-1/FEMALE, Target Tissue: Type of Lesion: STOMACH: SQUAMOUS CARCINOMA, Dose [Carcinogen]: 1 G/KG 2/D FOR 5 D EVERY 4 WK FOR 3 COURSES OF TREATMENT, Promoter: NONE USED): 60/137 (44%), 12/35 (34%), 23%, not calculated

O=C(CCCN1CCC(O)(c2ccc(Cl)cc2)CC1)c1ccc(F)cc1
tumour outcome (control, treated, inhibition, significance) (Carcinogen: AZOXYMETHANE, 25843-45-2, Dose [Inhibitor]: 0, 2 MG/KG BW SUSPENDED IN 1 ML/MG OLIVE OIL 1/2 D FOR STUDY DURATION (STUDY DURATION: 30 WK), Route [Inhibitor]: SUBCUTANEOUS, Species: RAT, Strain/Sex: WISTAR/MALE, Target Tissue: Type of Lesion: COLON: TUMOR, Dose [Carcinogen]: 7.4 MG/KG IN 0.9% SALINE 1/WK FOR 10 WK): 9/17 (53%), 3/19 (16%), 70%, p<0.05
